Data: ChEMBL document CHEMBL1909046, “DrugMatrix in vitro pharmacology data”

system: not listed separately; test: DRUGMATRIX: Serotonin (5-Hydroxytryptamine) 5-HT3 radioligand binding (ligand: [3H] GR-65630); assay type: cell membranes, Membrane; details: hek293; Not Active = under 50% inhibition at 10 µM

Row | SMILES | IC50 | Ki
1 | COc1cc([C@@H]2c3cc4c(cc3[C@@H](O[C@@H]3O[C@@H]5CO[C@@H](C)O[C@H]5[C@H](O)[C@H]3O)[C@H]3COC(=O)[C@H]23)OCO4)cc(OC)c1O [ETOPOSIDE] | Not Active | Not Active
2 | C=CCc1ccc(O)c(OC)c1 [EUGENOL] | Not Active | Not Active
3 | CC(C(=O)O)c1cccc(Oc2ccccc2)c1 (stereo not drawn) [FENOPROFEN] | Not Active | Not Active
4 | CC(C)(C)NC(=O)[C@H]1CC[C@H]2[C@@H]3CC[C@H]4NC(=O)C=C[C@]4(C)[C@H]3CC[C@]12C [FINASTERIDE] | Not Active | Not Active
5 | COc1ccc2c3c1O[C@H]1C[C@@H](O)C=C[C@@]31CCN(C)C2 [GALANTAMINE] | Not Active | Not Active
6 | Nc1ccn([C@@H]2O[C@H](CO)[C@@H](O)C2(F)F)c(=O)n1 [GEMCITABINE] | Not Active | Not Active
7 | CC(C)=CCC/C(C)=C/CO [GERANIOL] | Not Active | Not Active

system: not listed separately; test: DRUGMATRIX: Phosphodiesterase PDE3 enzyme inhibition (substrate: [3H]cAMP + cAMP); assay type: tissue-based, Homo sapiens; details: platelet; Not Active = under 50% inhibition at 10 µM

Row | SMILES | IC50 | Ki
8 | COc1cc([C@@H]2c3cc4c(cc3[C@@H](O[C@@H]3O[C@@H]5CO[C@@H](C)O[C@H]5[C@H](O)[C@H]3O)[C@H]3COC(=O)[C@H]23)OCO4)cc(OC)c1O [ETOPOSIDE] | Not Active | Not Active
9 | C=CCc1ccc(O)c(OC)c1 [EUGENOL] | Not Active | Not Active
10 | CC(C(=O)O)c1cccc(Oc2ccccc2)c1 (stereo not drawn) [FENOPROFEN] | Not Active | Not Active
11 | CC(C)(C)NC(=O)[C@H]1CC[C@H]2[C@@H]3CC[C@H]4NC(=O)C=C[C@]4(C)[C@H]3CC[C@]12C [FINASTERIDE] | Not Active | Not Active
12 | COc1ccc2c3c1O[C@H]1C[C@@H](O)C=C[C@@]31CCN(C)C2 [GALANTAMINE] | Not Active | Not Active
13 | Nc1ccn([C@@H]2O[C@H](CO)[C@@H](O)C2(F)F)c(=O)n1 [GEMCITABINE] | Not Active | Not Active
14 | CC(C)=CCC/C(C)=C/CO [GERANIOL] | Not Active | Not Active

target: T1, Angiotensin-converting enzyme (Oryctolagus cuniculus, UniProt P12822); test: not given; assay type: tissue-based, Lung; details: not given;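 further: enzymatic inhibition of angiotensin-converting enzyme measured with FAPGG as the substrate; in other assays of this panel Not Active means under 50% inhibition at 10 µM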
T1 sequence (P12822 whole entry): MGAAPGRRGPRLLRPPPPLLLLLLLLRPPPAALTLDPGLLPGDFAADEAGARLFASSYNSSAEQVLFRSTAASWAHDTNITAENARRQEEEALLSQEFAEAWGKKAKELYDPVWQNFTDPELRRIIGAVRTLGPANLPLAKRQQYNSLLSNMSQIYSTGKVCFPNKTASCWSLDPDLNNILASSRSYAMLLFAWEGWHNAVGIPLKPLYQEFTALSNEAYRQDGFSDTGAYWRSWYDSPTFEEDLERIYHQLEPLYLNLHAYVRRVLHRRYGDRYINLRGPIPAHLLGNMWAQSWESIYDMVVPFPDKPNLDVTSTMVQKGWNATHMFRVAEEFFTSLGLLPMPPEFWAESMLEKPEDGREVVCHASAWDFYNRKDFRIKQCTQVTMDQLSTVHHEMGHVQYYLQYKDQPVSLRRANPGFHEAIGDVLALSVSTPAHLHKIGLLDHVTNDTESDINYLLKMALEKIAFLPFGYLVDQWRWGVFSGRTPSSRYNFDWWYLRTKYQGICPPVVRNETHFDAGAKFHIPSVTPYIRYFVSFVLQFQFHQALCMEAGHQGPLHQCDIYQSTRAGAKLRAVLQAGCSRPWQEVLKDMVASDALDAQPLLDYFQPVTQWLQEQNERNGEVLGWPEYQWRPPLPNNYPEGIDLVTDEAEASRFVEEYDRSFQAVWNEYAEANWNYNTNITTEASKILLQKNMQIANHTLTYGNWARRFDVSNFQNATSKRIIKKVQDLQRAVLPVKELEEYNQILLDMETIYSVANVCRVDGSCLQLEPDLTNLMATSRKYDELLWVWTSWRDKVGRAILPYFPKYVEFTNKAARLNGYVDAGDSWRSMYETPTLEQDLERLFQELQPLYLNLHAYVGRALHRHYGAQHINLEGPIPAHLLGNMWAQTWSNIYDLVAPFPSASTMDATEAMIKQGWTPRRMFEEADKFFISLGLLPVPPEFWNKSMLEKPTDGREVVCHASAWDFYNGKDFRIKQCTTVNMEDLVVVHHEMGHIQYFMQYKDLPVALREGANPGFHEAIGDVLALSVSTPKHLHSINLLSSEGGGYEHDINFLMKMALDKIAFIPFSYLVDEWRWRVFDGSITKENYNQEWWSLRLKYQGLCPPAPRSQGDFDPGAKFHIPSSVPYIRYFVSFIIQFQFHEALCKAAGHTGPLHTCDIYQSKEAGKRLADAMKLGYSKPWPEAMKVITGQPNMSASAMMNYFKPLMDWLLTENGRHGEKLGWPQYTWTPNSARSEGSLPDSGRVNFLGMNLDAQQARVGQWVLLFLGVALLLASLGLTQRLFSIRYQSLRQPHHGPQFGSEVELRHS

Row | SMILES | IC50
15 | COc1cc([C@@H]2c3cc4c(cc3[C@@H](O[C@@H]3O[C@@H]5CO[C@@H](C)O[C@H]5[C@H](O)[C@H]3O)[C@H]3COC(=O)[C@H]23)OCO4)cc(OC)c1O [ETOPOSIDE] | Not Active
16 | C=CCc1ccc(O)c(OC)c1 [EUGENOL] | Not Active
17 | CC(C(=O)O)c1cccc(Oc2ccccc2)c1 (stereo not drawn) [FENOPROFEN] | Not Active
18 | CC(C)(C)NC(=O)[C@H]1CC[C@H]2[C@@H]3CC[C@H]4NC(=O)C=C[C@]4(C)[C@H]3CC[C@]12C [FINASTERIDE] | Not Active
19 | COc1ccc2c3c1O[C@H]1C[C@@H](O)C=C[C@@]31CCN(C)C2 [GALANTAMINE] | Not Active
20 | Nc1ccn([C@@H]2O[C@H](CO)[C@@H](O)C2(F)F)c(=O)n1 [GEMCITABINE] | Not Active
21 | CC(C)=CCC/C(C)=C/CO [GERANIOL] | Not Active

target: T2, Adenosine receptor A1 (Homo sapiens, UniProt P30542); test: not given; assay type: cell membranes, CHO, Membrane; details: cho;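 further: radioligand binding assay at the adenosine A1 receptor, with DPCPX serving as the labelled ligand; in other assays of this panel Not Active means under 50% inhibition at 10 µM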
T2 sequence (P30542 whole entry): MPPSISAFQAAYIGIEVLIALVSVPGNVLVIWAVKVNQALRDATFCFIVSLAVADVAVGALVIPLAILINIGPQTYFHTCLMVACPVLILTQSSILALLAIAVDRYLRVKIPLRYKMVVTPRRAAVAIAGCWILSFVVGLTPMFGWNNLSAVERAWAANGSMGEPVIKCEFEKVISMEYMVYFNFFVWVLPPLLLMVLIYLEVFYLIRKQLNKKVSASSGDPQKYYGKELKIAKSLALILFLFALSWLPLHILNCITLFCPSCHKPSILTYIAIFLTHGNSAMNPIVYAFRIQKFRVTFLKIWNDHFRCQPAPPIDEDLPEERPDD

Row | SMILES | IC50
22 | COc1cc([C@@H]2c3cc4c(cc3[C@@H](O[C@@H]3O[C@@H]5CO[C@@H](C)O[C@H]5[C@H](O)[C@H]3O)[C@H]3COC(=O)[C@H]23)OCO4)cc(OC)c1O [ETOPOSIDE] | Not Active
23 | C=CCc1ccc(O)c(OC)c1 [EUGENOL] | Not Active
24 | CC(C(=O)O)c1cccc(Oc2ccccc2)c1 (stereo not drawn) [FENOPROFEN] | Not Active
25 | CC(C)(C)NC(=O)[C@H]1CC[C@H]2[C@@H]3CC[C@H]4NC(=O)C=C[C@]4(C)[C@H]3CC[C@]12C [FINASTERIDE] | Not Active
26 | COc1ccc2c3c1O[C@H]1C[C@@H](O)C=C[C@@]31CCN(C)C2 [GALANTAMINE] | Not Active
27 | Nc1ccn([C@@H]2O[C@H](CO)[C@@H](O)C2(F)F)c(=O)n1 [GEMCITABINE] | Not Active
28 | CC(C)=CCC/C(C)=C/CO [GERANIOL] | Not Active

target: Vascular endothelial growth factor receptor 1 (Homo sapiens, UniProt P17948); test: biochemical; assay type: cell-based, HUVEC; details: huvec; further: in other assays of this panel Not Active means under 50% inhibition at 10 µM
Sequence (P17948 whole entry): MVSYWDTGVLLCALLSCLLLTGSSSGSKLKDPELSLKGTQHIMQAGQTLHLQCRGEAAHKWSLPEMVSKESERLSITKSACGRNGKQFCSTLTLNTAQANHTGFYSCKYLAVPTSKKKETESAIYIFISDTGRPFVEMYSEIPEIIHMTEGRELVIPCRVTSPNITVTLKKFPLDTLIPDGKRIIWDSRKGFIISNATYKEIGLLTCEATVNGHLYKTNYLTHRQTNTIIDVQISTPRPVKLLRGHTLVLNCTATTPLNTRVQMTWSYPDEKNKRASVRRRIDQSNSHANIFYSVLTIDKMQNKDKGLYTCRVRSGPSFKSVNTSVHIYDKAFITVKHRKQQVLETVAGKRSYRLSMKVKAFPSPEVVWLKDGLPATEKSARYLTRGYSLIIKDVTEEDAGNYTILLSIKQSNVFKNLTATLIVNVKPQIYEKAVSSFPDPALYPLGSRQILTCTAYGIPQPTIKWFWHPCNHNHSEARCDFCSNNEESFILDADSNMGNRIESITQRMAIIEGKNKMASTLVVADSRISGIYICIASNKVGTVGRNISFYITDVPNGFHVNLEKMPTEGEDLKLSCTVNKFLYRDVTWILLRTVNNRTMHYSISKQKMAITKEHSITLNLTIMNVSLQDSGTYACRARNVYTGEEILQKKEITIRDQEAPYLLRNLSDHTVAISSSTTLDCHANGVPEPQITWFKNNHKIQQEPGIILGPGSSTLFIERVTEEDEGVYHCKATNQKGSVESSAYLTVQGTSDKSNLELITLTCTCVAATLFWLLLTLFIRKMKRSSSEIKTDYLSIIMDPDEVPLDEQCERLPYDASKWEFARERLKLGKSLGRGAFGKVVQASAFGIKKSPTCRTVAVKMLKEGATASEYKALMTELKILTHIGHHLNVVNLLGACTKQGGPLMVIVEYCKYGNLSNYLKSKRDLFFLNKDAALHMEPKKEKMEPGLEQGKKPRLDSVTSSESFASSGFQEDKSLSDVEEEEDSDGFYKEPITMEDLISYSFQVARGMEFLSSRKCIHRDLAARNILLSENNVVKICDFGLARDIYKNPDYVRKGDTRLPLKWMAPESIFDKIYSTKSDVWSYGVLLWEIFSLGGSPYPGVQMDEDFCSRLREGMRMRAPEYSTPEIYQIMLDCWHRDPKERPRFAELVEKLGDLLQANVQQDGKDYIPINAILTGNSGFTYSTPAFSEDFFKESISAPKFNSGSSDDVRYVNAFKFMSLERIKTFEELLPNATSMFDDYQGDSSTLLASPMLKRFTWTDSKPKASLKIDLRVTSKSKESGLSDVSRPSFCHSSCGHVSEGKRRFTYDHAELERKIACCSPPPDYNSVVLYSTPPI

Row | SMILES | IC50
29 | COc1cc([C@@H]2c3cc4c(cc3[C@@H](O[C@@H]3O[C@@H]5CO[C@@H](C)O[C@H]5[C@H](O)[C@H]3O)[C@H]3COC(=O)[C@H]23)OCO4)cc(OC)c1O [ETOPOSIDE] | Not Active
30 | C=CCc1ccc(O)c(OC)c1 [EUGENOL] | Not Active
31 | CC(C(=O)O)c1cccc(Oc2ccccc2)c1 (stereo not drawn) [FENOPROFEN] | Not Active
32 | CC(C)(C)NC(=O)[C@H]1CC[C@H]2[C@@H]3CC[C@H]4NC(=O)C=C[C@]4(C)[C@H]3CC[C@]12C [FINASTERIDE] | Not Active
33 | COc1ccc2c3c1O[C@H]1C[C@@H](O)C=C[C@@]31CCN(C)C2 [GALANTAMINE] | Not Active
34 | Nc1ccn([C@@H]2O[C@H](CO)[C@@H](O)C2(F)F)c(=O)n1 [GEMCITABINE] | Not Active
35 | CC(C)=CCC/C(C)=C/CO [GERANIOL] | Not Active

target: T3, Type-2 angiotensin II receptor (Homo sapiens, UniProt P50052); test: not given; assay type: cell-based; details: cho-k1; further: in other assays of this panel Not Active means under 50% inhibition at 10 µM
T3 sequence (P50052 whole entry): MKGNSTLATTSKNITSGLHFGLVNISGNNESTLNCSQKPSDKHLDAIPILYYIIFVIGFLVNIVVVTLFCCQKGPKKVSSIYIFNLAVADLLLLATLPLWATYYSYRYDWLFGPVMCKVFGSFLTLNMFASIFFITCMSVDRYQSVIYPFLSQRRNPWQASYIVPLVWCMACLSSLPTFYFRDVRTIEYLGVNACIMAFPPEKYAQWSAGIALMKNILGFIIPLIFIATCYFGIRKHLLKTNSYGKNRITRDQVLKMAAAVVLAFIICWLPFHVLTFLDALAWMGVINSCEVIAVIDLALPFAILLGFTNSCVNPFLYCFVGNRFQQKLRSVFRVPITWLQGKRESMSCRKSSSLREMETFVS

Row | SMILES | IC50
36 | COc1cc([C@@H]2c3cc4c(cc3[C@@H](O[C@@H]3O[C@@H]5CO[C@@H](C)O[C@H]5[C@H](O)[C@H]3O)[C@H]3COC(=O)[C@H]23)OCO4)cc(OC)c1O [ETOPOSIDE] | Not Active
37 | C=CCc1ccc(O)c(OC)c1 [EUGENOL] | Not Active
38 | CC(C(=O)O)c1cccc(Oc2ccccc2)c1 (stereo not drawn) [FENOPROFEN] | Not Active
39 | CC(C)(C)NC(=O)[C@H]1CC[C@H]2[C@@H]3CC[C@H]4NC(=O)C=C[C@]4(C)[C@H]3CC[C@]12C [FINASTERIDE] | Not Active
40 | COc1ccc2c3c1O[C@H]1C[C@@H](O)C=C[C@@]31CCN(C)C2 [GALANTAMINE] | Not Active
41 | Nc1ccn([C@@H]2O[C@H](CO)[C@@H](O)C2(F)F)c(=O)n1 [GEMCITABINE] | Not Active
42 | CC(C)=CCC/C(C)=C/CO [GERANIOL] | Not Active

target: T4, C-X-C chemokine receptor type 1 (Homo sapiens, UniProt P25024); test: not given; details: not given; further: in other assays of this panel Not Active means under 50% inhibition at 10 µM
T4 sequence (P25024 whole entry): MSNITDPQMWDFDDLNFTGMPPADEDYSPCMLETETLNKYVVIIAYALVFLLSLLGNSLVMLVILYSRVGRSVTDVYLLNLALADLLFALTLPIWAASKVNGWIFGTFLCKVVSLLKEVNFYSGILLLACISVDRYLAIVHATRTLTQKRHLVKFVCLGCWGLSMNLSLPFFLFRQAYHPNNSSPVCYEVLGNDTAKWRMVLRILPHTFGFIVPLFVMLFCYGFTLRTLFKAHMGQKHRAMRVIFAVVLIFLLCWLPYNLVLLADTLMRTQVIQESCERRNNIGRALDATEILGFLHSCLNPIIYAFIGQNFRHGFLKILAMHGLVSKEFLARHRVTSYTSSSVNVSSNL

Row | SMILES | IC50
43 | COc1cc([C@@H]2c3cc4c(cc3[C@@H](O[C@@H]3O[C@@H]5CO[C@@H](C)O[C@H]5[C@H](O)[C@H]3O)[C@H]3COC(=O)[C@H]23)OCO4)cc(OC)c1O [ETOPOSIDE] | Not Active
44 | C=CCc1ccc(O)c(OC)c1 [EUGENOL] | Not Active
45 | CC(C(=O)O)c1cccc(Oc2ccccc2)c1 (stereo not drawn) [FENOPROFEN] | Not Active
46 | CC(C)(C)NC(=O)[C@H]1CC[C@H]2[C@@H]3CC[C@H]4NC(=O)C=C[C@]4(C)[C@H]3CC[C@]12C [FINASTERIDE] | Not Active
47 | COc1ccc2c3c1O[C@H]1C[C@@H](O)C=C[C@@]31CCN(C)C2 [GALANTAMINE] | Not Active
48 | Nc1ccn([C@@H]2O[C@H](CO)[C@@H](O)C2(F)F)c(=O)n1 [GEMCITABINE] | Not Active
49 | CC(C)=CCC/C(C)=C/CO [GERANIOL] | Not Active
